Values belong to the compound of their own block, whether it stands above or below them.
What was measured:
[1] = target: T1, Ephrin type-B receptor 3 (Homo sapiens) (UniProt P54753); assay: Inhibition of human recombinant EphB3 at 500 nM related to control ULK1
T1 sequence (whole entry): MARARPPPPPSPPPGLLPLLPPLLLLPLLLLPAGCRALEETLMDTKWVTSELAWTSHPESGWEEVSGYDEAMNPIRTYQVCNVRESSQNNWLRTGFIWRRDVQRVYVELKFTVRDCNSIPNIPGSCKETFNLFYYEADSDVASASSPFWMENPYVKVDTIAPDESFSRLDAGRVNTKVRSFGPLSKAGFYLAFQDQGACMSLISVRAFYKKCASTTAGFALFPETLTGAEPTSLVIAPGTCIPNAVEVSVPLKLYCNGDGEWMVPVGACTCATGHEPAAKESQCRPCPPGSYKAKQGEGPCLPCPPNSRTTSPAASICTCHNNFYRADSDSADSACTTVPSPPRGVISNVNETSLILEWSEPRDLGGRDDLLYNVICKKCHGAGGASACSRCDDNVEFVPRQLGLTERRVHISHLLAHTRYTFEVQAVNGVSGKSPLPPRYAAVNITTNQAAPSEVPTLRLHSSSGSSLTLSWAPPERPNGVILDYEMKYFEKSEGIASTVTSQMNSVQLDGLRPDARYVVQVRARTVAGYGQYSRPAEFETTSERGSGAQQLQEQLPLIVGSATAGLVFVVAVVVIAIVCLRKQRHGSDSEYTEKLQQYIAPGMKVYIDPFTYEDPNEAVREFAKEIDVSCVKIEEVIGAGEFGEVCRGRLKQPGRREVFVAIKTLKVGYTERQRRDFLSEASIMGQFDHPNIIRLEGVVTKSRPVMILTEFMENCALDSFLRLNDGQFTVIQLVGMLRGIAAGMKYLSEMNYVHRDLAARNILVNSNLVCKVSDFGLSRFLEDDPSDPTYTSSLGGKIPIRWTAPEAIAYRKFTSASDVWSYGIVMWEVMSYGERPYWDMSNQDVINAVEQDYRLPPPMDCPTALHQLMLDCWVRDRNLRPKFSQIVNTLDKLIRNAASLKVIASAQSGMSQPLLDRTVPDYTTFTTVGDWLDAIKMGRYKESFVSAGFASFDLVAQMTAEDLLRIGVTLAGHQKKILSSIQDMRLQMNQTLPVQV

[2] = target: Mitogen-activated protein kinase kinase kinase kinase 4 (Homo sapiens) (UniProt O95819); assay: Inhibition of human recombinant HGK at 500 nM related to control ULK1
[3] = target: Serine/threonine-protein kinase WNK3 (Homo sapiens) (UniProt Q9BYP7); assay: Inhibition of human recombinant Wnk3 at 500 nM related to control ULK1
[4] = target: BDNF/NT-3 growth factors receptor (Homo sapiens) (UniProt Q16620); assay: Inhibition of human recombinant TRKB at 500 nM related to control ULK1
[5] = target: T2, Dual specificity protein kinase TTK (Homo sapiens) (UniProt P33981); assay: Inhibition of human recombinant TTK at 500 nM related to control ULK1
T2 sequence (whole entry): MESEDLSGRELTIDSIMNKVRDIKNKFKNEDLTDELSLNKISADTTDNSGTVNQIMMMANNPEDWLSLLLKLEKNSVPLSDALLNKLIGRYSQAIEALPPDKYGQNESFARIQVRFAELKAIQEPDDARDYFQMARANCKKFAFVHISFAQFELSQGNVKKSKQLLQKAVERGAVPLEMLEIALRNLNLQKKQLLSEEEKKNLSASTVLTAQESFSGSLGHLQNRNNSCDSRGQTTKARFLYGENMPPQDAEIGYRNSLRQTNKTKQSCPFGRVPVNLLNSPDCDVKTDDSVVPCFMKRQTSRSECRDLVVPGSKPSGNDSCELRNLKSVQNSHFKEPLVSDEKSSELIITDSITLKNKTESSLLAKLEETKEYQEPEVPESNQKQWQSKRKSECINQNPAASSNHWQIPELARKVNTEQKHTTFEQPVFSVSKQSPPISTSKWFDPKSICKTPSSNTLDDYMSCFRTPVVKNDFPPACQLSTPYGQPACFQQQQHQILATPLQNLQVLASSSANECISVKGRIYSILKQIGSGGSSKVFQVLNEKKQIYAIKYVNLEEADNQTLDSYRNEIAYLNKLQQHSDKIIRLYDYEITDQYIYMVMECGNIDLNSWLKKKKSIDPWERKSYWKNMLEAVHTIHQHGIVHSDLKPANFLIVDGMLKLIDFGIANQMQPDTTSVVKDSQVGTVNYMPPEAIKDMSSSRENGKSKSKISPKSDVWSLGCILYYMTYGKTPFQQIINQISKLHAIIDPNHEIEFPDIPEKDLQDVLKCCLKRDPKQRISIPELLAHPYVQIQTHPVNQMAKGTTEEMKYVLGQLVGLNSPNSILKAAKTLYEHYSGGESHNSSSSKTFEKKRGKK

[6] = target: Serine/threonine-protein kinase MRCK alpha (Homo sapiens) (UniProt Q5VT25); assay: Inhibition of human recombinant MRCKa at 15 nM related to control ULK1
[7] = target: Dual specificity tyrosine-phosphorylation-regulated kinase 1B (Homo sapiens) (UniProt Q9Y463); assay: Inhibition of human recombinant DYRK1B at 15 nM in presence of ATP by radiometric assay relative to control
[8] = target: MAP kinase-activated protein kinase 2 (Homo sapiens) (UniProt P49137); assay: Inhibition of human recombinant MAPKAPK2 at 15 nM related to control ULK1
[9] = target: Protein kinase C theta type (Homo sapiens) (UniProt Q04759); assay: Inhibition of human recombinant PKCt at 15 nM in presence of ATP by radiometric assay relative to control
[10] = target: Cyclin-dependent kinase-like 3 (Homo sapiens) (UniProt Q8IVW4); assay: Inhibition of human recombinant CDKL3 at 40 nM in presence of ATP by radiometric assay relative to control
Chain of Cyclin-dependent kinase-like 3 (Homo sapiens) (Q8IVW4 whole entry, looked up): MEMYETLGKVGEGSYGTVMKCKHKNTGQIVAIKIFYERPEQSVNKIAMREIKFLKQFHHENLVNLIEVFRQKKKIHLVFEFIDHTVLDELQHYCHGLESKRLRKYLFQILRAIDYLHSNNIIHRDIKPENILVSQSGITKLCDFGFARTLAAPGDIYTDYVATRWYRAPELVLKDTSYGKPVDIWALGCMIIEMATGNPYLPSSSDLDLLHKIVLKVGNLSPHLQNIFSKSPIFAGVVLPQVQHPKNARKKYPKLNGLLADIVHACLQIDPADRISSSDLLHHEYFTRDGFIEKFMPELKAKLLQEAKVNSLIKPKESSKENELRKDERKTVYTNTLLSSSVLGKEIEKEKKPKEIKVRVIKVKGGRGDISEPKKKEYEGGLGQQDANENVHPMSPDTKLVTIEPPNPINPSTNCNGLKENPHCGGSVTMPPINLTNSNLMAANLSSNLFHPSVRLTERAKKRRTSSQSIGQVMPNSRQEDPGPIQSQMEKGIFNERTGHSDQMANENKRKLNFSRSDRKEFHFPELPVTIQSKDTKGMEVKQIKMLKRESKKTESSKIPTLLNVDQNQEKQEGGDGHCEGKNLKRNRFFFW

Chain of Protein kinase C theta type (Homo sapiens) (Q04759 whole entry, looked up): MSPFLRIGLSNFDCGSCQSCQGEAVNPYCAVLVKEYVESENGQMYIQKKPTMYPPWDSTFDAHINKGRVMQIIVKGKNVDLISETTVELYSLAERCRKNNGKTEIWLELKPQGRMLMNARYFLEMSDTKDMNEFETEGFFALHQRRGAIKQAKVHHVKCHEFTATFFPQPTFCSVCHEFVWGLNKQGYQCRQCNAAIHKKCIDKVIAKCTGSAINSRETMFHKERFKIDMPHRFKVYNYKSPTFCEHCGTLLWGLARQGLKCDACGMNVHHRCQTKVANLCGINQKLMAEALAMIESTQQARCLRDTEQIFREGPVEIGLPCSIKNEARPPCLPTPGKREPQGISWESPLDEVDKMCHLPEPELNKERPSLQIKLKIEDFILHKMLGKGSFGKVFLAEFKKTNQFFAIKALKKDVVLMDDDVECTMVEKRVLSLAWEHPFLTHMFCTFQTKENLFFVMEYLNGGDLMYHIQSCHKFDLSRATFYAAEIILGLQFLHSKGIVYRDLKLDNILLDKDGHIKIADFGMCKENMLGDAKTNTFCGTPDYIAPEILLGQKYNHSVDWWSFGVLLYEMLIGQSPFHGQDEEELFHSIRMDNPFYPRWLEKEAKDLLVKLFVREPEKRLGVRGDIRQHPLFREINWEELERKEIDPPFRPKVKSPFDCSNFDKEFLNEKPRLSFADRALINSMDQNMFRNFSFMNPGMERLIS
Chain of Mitogen-activated protein kinase kinase kinase kinase 4 (Homo sapiens) (O95819 2-1239 limits assumed): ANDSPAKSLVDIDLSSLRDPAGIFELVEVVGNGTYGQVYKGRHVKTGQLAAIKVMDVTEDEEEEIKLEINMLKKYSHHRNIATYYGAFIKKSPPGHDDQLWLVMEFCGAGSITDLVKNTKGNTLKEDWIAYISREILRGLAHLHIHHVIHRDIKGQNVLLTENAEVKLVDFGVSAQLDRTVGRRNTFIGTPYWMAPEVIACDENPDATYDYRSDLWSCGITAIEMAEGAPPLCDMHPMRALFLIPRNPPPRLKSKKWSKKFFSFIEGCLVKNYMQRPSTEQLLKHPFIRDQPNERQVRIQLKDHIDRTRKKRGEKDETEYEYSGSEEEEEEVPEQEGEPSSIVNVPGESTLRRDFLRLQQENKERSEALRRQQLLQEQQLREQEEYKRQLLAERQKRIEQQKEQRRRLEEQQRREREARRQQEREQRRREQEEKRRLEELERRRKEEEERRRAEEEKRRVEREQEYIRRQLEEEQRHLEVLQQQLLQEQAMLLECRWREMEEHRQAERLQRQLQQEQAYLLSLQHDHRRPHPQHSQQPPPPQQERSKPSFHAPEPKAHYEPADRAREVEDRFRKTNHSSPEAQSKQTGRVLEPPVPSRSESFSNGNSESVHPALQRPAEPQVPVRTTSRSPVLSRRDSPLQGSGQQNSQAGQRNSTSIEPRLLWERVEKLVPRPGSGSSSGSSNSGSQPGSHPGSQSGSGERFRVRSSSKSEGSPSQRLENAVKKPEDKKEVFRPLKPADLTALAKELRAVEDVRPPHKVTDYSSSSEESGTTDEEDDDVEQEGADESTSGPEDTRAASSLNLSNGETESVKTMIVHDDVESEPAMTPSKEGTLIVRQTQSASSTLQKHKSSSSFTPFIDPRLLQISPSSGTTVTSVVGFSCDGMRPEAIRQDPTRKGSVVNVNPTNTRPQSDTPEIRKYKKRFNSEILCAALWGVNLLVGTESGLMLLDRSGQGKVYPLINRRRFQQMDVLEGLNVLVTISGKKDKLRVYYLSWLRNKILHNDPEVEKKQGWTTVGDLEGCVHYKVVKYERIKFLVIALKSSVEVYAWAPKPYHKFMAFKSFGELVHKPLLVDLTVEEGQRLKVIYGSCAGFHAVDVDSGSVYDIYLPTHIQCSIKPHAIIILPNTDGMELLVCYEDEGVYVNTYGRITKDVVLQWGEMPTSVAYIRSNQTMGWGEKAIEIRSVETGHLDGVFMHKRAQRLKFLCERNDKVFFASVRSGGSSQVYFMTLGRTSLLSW
Chain of Serine/threonine-protein kinase MRCK alpha (Homo sapiens) (Q5VT25 whole entry): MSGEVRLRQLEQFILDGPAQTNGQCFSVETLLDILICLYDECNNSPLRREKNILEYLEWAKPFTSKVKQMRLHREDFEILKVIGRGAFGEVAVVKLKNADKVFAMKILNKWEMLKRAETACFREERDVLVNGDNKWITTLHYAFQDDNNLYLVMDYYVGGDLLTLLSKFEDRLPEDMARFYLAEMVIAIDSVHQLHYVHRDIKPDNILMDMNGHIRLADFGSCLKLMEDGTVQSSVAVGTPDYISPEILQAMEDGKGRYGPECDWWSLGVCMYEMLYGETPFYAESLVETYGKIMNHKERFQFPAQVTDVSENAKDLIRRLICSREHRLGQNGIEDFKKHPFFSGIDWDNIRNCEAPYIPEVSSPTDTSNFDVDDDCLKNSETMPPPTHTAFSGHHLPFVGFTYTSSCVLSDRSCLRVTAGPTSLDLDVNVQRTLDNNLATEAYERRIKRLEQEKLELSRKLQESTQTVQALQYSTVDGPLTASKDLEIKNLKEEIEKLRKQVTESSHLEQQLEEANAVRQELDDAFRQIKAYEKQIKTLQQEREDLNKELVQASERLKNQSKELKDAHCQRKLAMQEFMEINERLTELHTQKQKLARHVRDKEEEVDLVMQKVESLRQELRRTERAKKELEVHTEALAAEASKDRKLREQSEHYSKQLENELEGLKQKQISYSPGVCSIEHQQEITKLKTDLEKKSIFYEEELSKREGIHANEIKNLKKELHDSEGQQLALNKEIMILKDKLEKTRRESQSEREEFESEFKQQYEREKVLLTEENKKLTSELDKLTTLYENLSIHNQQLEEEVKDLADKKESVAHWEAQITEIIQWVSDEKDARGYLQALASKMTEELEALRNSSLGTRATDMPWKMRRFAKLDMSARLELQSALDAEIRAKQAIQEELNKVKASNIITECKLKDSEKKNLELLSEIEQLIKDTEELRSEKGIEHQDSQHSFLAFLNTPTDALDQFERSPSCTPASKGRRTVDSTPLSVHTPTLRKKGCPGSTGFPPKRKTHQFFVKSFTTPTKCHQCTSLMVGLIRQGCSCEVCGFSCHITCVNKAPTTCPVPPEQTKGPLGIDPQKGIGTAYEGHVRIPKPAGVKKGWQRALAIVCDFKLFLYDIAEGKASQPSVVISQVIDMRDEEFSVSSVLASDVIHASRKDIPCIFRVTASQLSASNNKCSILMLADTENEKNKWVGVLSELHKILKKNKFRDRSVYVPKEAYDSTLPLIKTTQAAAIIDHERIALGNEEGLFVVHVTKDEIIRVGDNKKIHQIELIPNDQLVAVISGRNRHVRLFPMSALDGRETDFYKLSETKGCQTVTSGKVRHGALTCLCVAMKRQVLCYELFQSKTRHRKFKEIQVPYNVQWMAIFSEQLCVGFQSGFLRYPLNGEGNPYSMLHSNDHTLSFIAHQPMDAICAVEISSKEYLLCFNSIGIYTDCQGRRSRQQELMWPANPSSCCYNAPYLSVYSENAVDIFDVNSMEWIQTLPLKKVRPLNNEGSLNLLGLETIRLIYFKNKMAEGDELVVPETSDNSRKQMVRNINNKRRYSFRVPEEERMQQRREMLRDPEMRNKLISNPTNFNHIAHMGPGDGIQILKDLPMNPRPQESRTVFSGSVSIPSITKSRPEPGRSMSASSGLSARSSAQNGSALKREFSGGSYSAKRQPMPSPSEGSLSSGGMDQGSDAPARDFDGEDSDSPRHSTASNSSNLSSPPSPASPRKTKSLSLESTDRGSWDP
Chain of MAP kinase-activated protein kinase 2 (Homo sapiens) (P49137 whole entry, looked up): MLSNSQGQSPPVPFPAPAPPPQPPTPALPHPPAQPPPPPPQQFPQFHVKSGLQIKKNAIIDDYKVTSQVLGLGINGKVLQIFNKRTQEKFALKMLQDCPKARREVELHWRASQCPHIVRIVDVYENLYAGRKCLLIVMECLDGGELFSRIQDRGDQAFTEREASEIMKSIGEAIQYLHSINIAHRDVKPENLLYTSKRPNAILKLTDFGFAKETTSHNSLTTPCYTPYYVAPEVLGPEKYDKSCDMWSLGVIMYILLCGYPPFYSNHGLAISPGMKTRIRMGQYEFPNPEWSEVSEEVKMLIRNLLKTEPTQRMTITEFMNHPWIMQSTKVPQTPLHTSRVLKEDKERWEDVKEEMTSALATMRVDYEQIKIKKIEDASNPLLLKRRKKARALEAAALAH

fold change (FC) [1]: 0
fold change (FC) [2]: 0
fold change (FC) [3]: 0.08
fold change (FC) [4]: 0.65
fold change (FC) [5]: 0.15
Compound: CNC(=O)c1ccccc1Oc1nc(Nc2cc(OC)c(OC)c(OC)c2)ncc1Br

fold change (FC) [6]: 0.13
inhibition [7]: 65%
fold change (FC) [8]: 0
inhibition [9]: 0%
Compound: CC(C)[C@H](NC(=O)c1cc(-c2cnn3cc(-c4ccc(OCCN5CCCCC5)cc4)cnc23)cs1)C(F)(F)F

inhibition [10]: 39%
Compound: O=C(N[C@@H](C1CC1)C(F)(F)F)c1cc(-c2cnn3cc(-c4ccc(F)cc4)cnc23)cs1
